From patent publication US12208108B2, “Drug targets of delayed aging and human brain diseases” (Texas Tech University System, priority 2016, dated 2025)

Legend:
SHSY5Y cells [1] = test: Cell viability test (MTT assay); format: cell-based, Human
Procedure: Cell viability test (MTT assay). Mitochondrial respiration, an indicator of cell viability, was assessed in the SHSY5Y cells from control and experimental treatments (n=4), using the mitochondrial-dependent reduction of 3-(4,5-dimethyl-thiazol-2-yl)-2,5-diphenyl-tetrazolium bromide (MTT) to formazan as described in Manczak et al..

SHSY5Y cells [2] = test: H2O2 production (Amplex Red); format: cell-based, Human
Procedure: Mitochondrial function assays. Hydrogen peroxide production. Using an Amplex® Red H2O2 Assay Kit (Molecular Probes, Eugene, Oreg.), the inventors measured the production of H2O2 in independent experiments (n=4) of SHSY5Y neurons treated 1) with and 2) without DDQ, DDQ treated and then incubated with Aβ, as described in Manczak et al..

SHSY5Y cells [3] = test: ATP levels in isolated mitochondria; format: cell-based, Human
Procedure: ATP levels. ATP levels were measured in mitochondria isolated from SHSY5Y neurons of control and experimental treatments (n=4) using the ATP determination kit (Molecular Probes) as described in Manczak et al..

SHSY5Y cells [4] = test: Transmission electron microscopy, mitochondrial number and length; format: cell-based, Human
Excerpt: Transmission electron microscopy. To determine the effects of DDQ on mitochondrial number and morphology, and any rescual effects of DDQ on mitochondria in the untreated and Aβ treated cells, the inventors used TEM on untreated, DDQ, Aβ+DDQ and DDQ+Aβ, treated SHSY5Y cells.
Transmission electron microscopy. To determine the effects of DDQ on the numbers of mitochondria and any rescue effects of DDQ on mitochondria in the mutant SHSY5Y neurons, the inventors used TEM on untreated and treated SHSY5Y cells (as shown in FIG. 3). [Batches 1-5]. All SHSY5Y cells batches 1-5 were fixed in […] sodium cacodylate (pH 7.2), 2.5% glutaraldehyde, 1.6% paraformaldehyde, 0.064% picric acid and 0.1% ruthenium red. They were gently washed and post-fixed for 1 h in 1% osmium tetroxide plus […] potassium ferricyanide, in 100 mm sodium cacodylate, pH 7.2. After a thorough rinsing in water, the SHSY5Y cells were dehydrated, infiltrated overnight in 1:1 acetone:Epon 812 and infiltrated for 1 h with 100% Epon 812 resin. They were then embedded in the resin. After polymerization, 60 to 80 nm thin sections were cut on a Reichert ultramicrotome and stained for 5 min in lead citrate. They were rinsed and post-stained for 30 min in uranyl acetate and then were rinsed again and dried. Electron microscopy was performed at 60 kV on a Philips Morgagne TEM equipped with a CCD, and images were collected at magnifications of ×1000-37 000. The numbers of mitochondria were counted in the SHSY5Y cells batches 1-5, and statistical significance was determined, using one-way ANOVA.

[5] = molecular target: T1, interaction of Aβ with Drp1 (Homo sapiens, UniProt O00429); test: Co-immunoprecipitation of Aβ and Drp1 in SHSY5Y cells; format: cell-based
T1 construct: SHSY5Y cells incubated with Aβ peptide 1-42 (20 uM final concentration); Anaspec (Aβ 1-42 peptide); host or cells: SHSY5Y human neuroblastoma cells
T1 sequence (O00429 whole entry): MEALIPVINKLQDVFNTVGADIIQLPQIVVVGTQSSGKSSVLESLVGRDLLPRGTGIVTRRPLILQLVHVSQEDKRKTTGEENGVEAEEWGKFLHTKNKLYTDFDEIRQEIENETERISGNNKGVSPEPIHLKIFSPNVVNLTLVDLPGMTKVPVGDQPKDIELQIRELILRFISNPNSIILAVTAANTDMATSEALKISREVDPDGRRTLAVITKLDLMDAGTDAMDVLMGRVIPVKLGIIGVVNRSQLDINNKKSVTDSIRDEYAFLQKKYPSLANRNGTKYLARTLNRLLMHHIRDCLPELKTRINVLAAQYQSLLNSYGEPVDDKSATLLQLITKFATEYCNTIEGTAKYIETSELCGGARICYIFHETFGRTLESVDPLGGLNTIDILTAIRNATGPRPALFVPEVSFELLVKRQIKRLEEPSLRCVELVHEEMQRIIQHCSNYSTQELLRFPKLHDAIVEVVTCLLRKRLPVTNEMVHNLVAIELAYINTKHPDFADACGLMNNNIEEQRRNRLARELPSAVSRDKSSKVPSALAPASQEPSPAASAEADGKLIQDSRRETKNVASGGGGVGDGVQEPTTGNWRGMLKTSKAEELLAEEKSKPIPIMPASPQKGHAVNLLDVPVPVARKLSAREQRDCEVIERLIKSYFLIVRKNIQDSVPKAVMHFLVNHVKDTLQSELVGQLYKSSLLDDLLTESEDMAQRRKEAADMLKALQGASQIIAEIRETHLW
Procedure: Co-immunoprecipitation and immunoblotting analysis using DDQ treated SHSY5Y cells+Aβ. To determine whether DDQ reduces the interaction of Aβ with Drp1 in Aβ incubated cells, the inventors performed co-immunoprecipitation analysis using the Drp1 antibody, and immunoblotting analysis using Aβ recognizing 6E10 antibody and protein lysates of DDQ pre-treated, DDQ post-treated and Aβ incubated cells.
SHSY5Y cells, mutant APPSwe/Ind cells and co-immunoprecipitation analysis. SHSY5Y cells: To determine whether Aβ interact with Drp1, the inventors used protein lysates from Aβ incubated (DDQ pre-treated, post-treated and untreated) SHSY5Y cells.
(§1) The inventors performed co-immunoprecipitation (co-IP) assays using the Dynabeads Kit for Immunoprecipitation (Invitrogen). Briefly, 50 μL of Dynabeads containing protein G was incubated with 10 μg 6E10 or 10 μg of the Drp1 antibodies (both mono- and polyclonal antibodies; Santa Cruz), with rotation, for 1 h at room temperature. The inventors used all the reagents and buffers provided in the kit. Details of antibodies used for co-IP and western blotting are given Table 5. The Dynabeads-Aβ complex was washed three times with a washing buffer and was then incubated overnight with 400 μg of protein at 4° C., with rotation. […]

[6] = tested on: mutant APPSwe/Ind mouse neuroblastoma (N2a) cells; test: Co-immunoprecipitation and immunoblotting of mutant APPSwe/Ind cells; format: cell-based; settings: DDQ 250 nM 24 hrs vs mutant APPSwe/Ind cells untreated with DDQ
Procedure: Co-immunoprecipitation and immunoblotting analysis of mutant APPSwe/Ind cells treated with DDQ. To determine whether DDQ reduces the interaction of Aβ with Drp1 in mutant APPSwe/Ind cells, the inventors used mutant APPSwe/Ind cDNA construct transfected into mouse neuroblastoma (N2a) cells and further cells were treated with DDQ. The inventors performed immunoprecipitation with Aβ (6E10) antibody and immunoblotting analysis with 6E10 and the inventors also performed co-immunoprecipitation analysis with Aβ (6E10) antibody and immunoblotting analysis with Drp1 antibody. […] These findings further confirm that DDQ reduces full-length APP and 4 kDa Aβ and reduces interaction between Drp1 and Aβ.
Mutant APPSwe/Ind cells: The inventors purchased mutant APPSwe cDNA clone (pCAX-APPSwe/Ind) from Addgene—https://www.addgene.org and verified expression of mutant APP APPSwe/Ind cDNA and further sub-cloned into a mammalian expression vector (Arubala P. Reddy—unpublished observations). The inventors transfected mutant APPSwe/Ind cDNA into mouse neuroblastoma (N2a) cells for 24 hrs and after transfection, cells were treated with DDQ (250 nM) for 24 hrs. The inventors harvested mutant APPSwe/Ind cells treated and untreated with DDQ and prepared protein lysates and performed co-immunoprecipitation using Aβ (6E10) antibody and conducted immunoblotting analysis with 6E10 and Drp1 antibodies.
as §1

[7] = Aβ + DDQ (Aβ1-42 20 μM 6 hrs, then DDQ 24 hrs) vs untreated cells
[8] = DDQ 250 nM 24 hrs vs untreated cells
[9] = DDQ + Aβ (DDQ 24 hrs, then Aβ1-42 6 hrs) vs Aβ incubated cells
[10] = DDQ + Aβ (DDQ 24 hrs, then Aβ1-42 6 hrs) vs untreated cells
[11] = DDQ post-treated (Aβ + DDQ) vs cells treated with Aβ alone
[12] = DDQ-pre treated (DDQ + Aβ) vs cells treated with Aβ alone

For `CCOP(=O)(OCC)C(NCCc1ccc(O)c(O)c1)c1ccnc2ccccc12` (stereo not shown) [DDQ, diethyl(3,4-dihydroxyphenethylamine)(quinolin-4-yl)methylphosphonate], the Cell viability (SHSY5Y cells [1]; [7]) was “unchanged”, the Cell viability (SHSY5Y cells [1]; [8]) was “significantly increased” and the Cell viability (SHSY5Y cells [1]; [9]) was “Significantly increased”. For the same molecule, the Cell viability (SHSY5Y cells [1]; [10]) was “unchanged”, the H2O2 levels (SHSY5Y cells [2]; [7]) was “Significantly increased levels” and the H2O2 levels (SHSY5Y cells [2]; Aβ + DDQ (Aβ1-42 6 hrs, then DDQ 24 hrs) vs cells incubated with Aβ) was “significantly reduced”. The H2O2 levels (SHSY5Y cells [2]; [8]) was “significantly decreased levels”, the H2O2 levels (SHSY5Y cells [2]; DDQ + Aβ (DDQ 24 hrs, then Aβ1-42 6 hrs) vs cells incubated with Aβ) was “significantly reduced” and the H2O2 levels (SHSY5Y cells [2]; [10]) was “Significantly increased levels”. The ATP levels (SHSY5Y cells [3]; [7]) was “Significantly increased levels”, the ATP levels (SHSY5Y cells [3]; Aβ + DDQ (Aβ1-42 6 hrs, then DDQ 24 hrs) vs Aβ incubated cells) was “Significantly increased ATP levels” and the ATP levels (SHSY5Y cells [3]; [8]) was “Significantly increased levels”. The ATP levels (SHSY5Y cells [3]; [9]) was “Significantly increased ATP levels”, the mitochondrial length (SHSY5Y cells [4]; [7]) was “not significantly changed” and the number of mitochondria (SHSY5Y cells [4]; [7]) was “approximately equal number”. The mitochondrial length (SHSY5Y cells [4]; [8]) was “significantly increased”, the number of mitochondria (SHSY5Y cells [4]; [8]) was “reduced” and the mitochondrial length (SHSY5Y cells [4]; [10]) was “not significantly changed”. The number of mitochondria (SHSY5Y cells [4]; [10]) was “approximately equal number”, the mitochondrial length (SHSY5Y cells [4]; [11]) was “significantly increased” and the number of mitochondria (SHSY5Y cells [4]; [11]) was “significantly reduced”. For the same molecule, the mitochondrial length (SHSY5Y cells [4]; [12]) was “significantly increased”, the number of mitochondria (SHSY5Y cells [4]; [12]) was “significantly reduced” and the “interaction between Aβ and Drp1” value ([5]; DDQ post-treated (Aβ + DDQ) vs Aβ incubated cells) was “reduced interaction”. For the same molecule, the “interaction between Aβ and Drp1” value ([5]; DDQ pre-treated (DDQ + Aβ) vs Aβ incubated cells) was “reduced interaction”, the “4 kDa Aβ levels (IP 6E10, WB 6E10)” value [6] was “reduced levels” and the “Drp1 levels (co-IP 6E10, WB Drp1)” value [6] was “reduced levels”. The “full-length APP levels (IP 6E10, WB 6E10)” value [6] was “reduced levels”.
